We go through 37 compounds from patent US12662469B2 (SIRONAX LTD, priority 2018, dated 2026).

Each structure is given as a SMILES string. Read-outs that look alike come from different tables or passages of the source.

The test system of the assay is Cell Necrosis. The experiment in a line: Cell necrosis assay / cell viability assay (necrosis inhibitor activity). It counts as cell-based.
[1] abbreviates: necrosis inhibitor activity, compounds outside 14-191, read-out: EC50.
Where [2] appears, read: necrosis inhibitor activity, EC data for 14-191 extrapolated, read-out: EC50.

`O=C(N1CC(Oc2ccc3ccc(=O)[nH]c3c2)C1)N1N=CCC1c1cc(F)cc(F)c1` (stereo not shown) [Compound 204, 7-((1-(5-(3,5-difluorophenyl)-4,5-dihydro-1H-pyrazole-1-carbonyl)azetidin-3-yl)oxy)quinolin-2(1H)-one]: the half-maximal effective concentration (EC50) under setting [1] fell in the range of 1 to 1000 nM.
Same read-out and setting: the figure for `O=C1Nc2cc(OC3CN(C(=O)N4N=CC[C@H]4c4cc(F)cc(F)c4)C3)c(F)cc2OC1CCO` (stereo partly drawn) [Compound 246, 6-((1-((S)-5-(3,5-difluorophenyl)-4,5-dihydro-1H-pyrazole-1-carbonyl)azetidin-3-yl)oxy)-7-fluoro-2-(2-hydroxyethyl)-2H-benzo[b][1,4]oxazin-3(4H)-one] is 1 to 1000 nM.
Same read-out and setting: then `CN(C(=O)OC(C)(C)C)c1nccc(O[C@@H]2CCN(C(=O)N3N=CC[C@H]3c3cc(F)cc(F)c3)C2)n1` [Compound 366, tert-butyl (4-(((R)1-((S)-5-(3,5-difluorophenyl)-4,5-dihydro-1H-pyrazole-1-carbonyl)pyrrolidin-3-yl)oxy)pyrimidin-2-yl)(methyl)carbamate], with 1 to 1000 nM.
For `Cc1cnc(N2CCN(C(=O)N3N=CCC3c3ccccc3)CC2)nc1` (stereo not shown) [Compound 87, (4-(5-methylpyrimidin-2-yl)piperazin-1-yl)(5-phenyl-4,5-dihydro-1H-pyrazol-1-yl)methanone], the EC50 under setting [2] is 1 to 1000 nM.
Same read-out and setting: the figure for `C[C@H]1CN(c2ncccn2)CCN1C(=O)N1N=CCC1c1ccccc1` (stereo in doubt) [Compound 112B, (S)-(2-methyl-4-(pyrimidin-2-yl)piperazin-1-yl)(5-phenyl-4,5-dihydro-1H-pyrazol-1-yl)methanone] is 1000 to 10000 nM.
`N#Cc1cc(F)cc([C@@H]2CC=NN2C(=O)N2CC(Oc3cc4[nH]nc(F)c4cc3F)C2)c1` [Compound 377, (S)-3-(1-(3-((3,5-difluoro-1H-indazol-6-yl)oxy)azetidine-1-carbonyl)-4,5-dihydro-1H-pyrazol-5-yl)-5-fluorobenzonitrile]: the EC50 under setting [1] lay within 1 to 1000 nM.
Same read-out and setting: the figure for `O=C(N1CC(=Cc2cc(NC3CC3)ncc2F)C1)N1N=CC[C@H]1c1cc(F)cc(F)c1` [Compound 326, (S)-(3-((2-(cyclopropylamino)-5-fluoropyridin-4-yl)methylene)azetidin-1-yl)(5-(3,5-difluorophenyl)-4,5-dihydro-1H-pyrazol-1-yl)methanone] is 1 to 1000 nM; for `O=C(N1CC(=Cc2cc3[nH]c(=O)oc3cc2F)C1)N1N=CC[C@H]1c1cc(F)cc(F)c1` [Compound 372, (S)-5-((1-(5-(3,5-difluorophenyl)-4,5-dihydro-1H-pyrazole-1-carbonyl)azetidin-3-yildene)methyl)-6-fluorobenzo[d]oxazol-2(3H)-one] it is 1 to 1000 nM.
Turning to `NC(=O)c1cc(OC2CN(C(=O)N3N=CCC3c3cc(F)cc(F)c3)C2)ccc1Cl` (stereo not shown) [Compound 158], under setting [2], the EC50 was 1 to 1000 nM.
Turning to `O=C(N1CCCC1)N1N=CCC1c1ccccc1` (stereo not shown) [Compound 6, (5-phenyl-4,5-dihydro-1H-pyrazol-1-yl)(pyrrolidin-1-yl)methanone], the EC50 under setting [1] was 1 to 1000 nM.
On to `O=C(N1CC(Oc2cc3[nH]nc(F)c3cc2F)C1)N1N=CCC1c1ccccc1` (stereo not shown) [Compound 379, (3-((3,5-difluoro-1H-indazol-6-yl)oxy)azetidin-1-yl)(5-phenyl-4,5-dihydro-1H-pyrazol-1-yl)methanone], for which the EC50 under setting [1] was in the range of 1 to 1000 nM.
For the compound `CC1Oc2ccc(OC3CN(C(=O)N4N=CC[C@H]4c4cc(F)cc(F)c4)C3)cc2NC1=O` (stereo partly drawn) [Compound 353, 6-((1-((S)-5-(3,5-difluorophenyl)-4,5-dihydro-1H-pyrazole-1-carbonyl)azetidin-3-yl)oxy)-2-methyl-2H-benzo[b][1,4]oxazin-3(4H)-one], the EC50 under setting [1] was 1 to 1000 nM.
On the same count and under the same terms, the figure for `O=C(N1CC(Oc2ccc(F)cc2F)C1)N1N=CCC1c1cncc(F)c1` (stereo not shown) [Compound 213, (3-(2,4-difluorophenoxy)114zetidine-1-yl)(5-(5-fluoropyridin-3-yl)-4,5-dihydro-1H-pyrazol-1-yl)methanone] is 1 to 1000 nM.
With `O=C(N1CCN(c2nccc(O)n2)CC1)N1N=CCC1c1ccccc1` (stereo not shown) [Compound 103, (4-(4-hydroxypyrimidin-2-yl)piperazin-1-yl)(5-phenyl-4,5-dihydro-1H-pyrazol-1-yl)methanone], under setting [2], the EC50 was 1000 to 10000 nM.
On the same count and under the same terms, then `O=C(N1CC(Oc2ccc(F)cc2F)C1)N1N=CCC1c1cccc(F)c1` (stereo not shown) [Compound 75, (3-(2,4-difluorophenoxy)azetidin-1-yl)(5-(3-fluorophenyl)-4,5-dihydro-1H-pyrazol-1-yl)methanone], with 1 to 1000 nM; and `O=C(N1CC(=Cc2ccc(F)cc2F)C1)N1N=CCC1c1cc(F)cc(F)c1` (stereo not shown) [Compound 55, (3-(2,4-difluorobenzylidene)azetidin-1-yl)(5-(3,5-difluorophenyl)-4,5-dihydro-1H-pyrazol-1-yl)methanone], with 1 to 1000 nM.
In the case of `O=C1COc2cc(F)c(O[C@@H]3CCN(C(=O)N4N=CC[C@H]4c4cc(F)cc(F)c4)C3)cc2N1` [Compound 196], the EC50 under setting [1] is 1 to 1000 nM.
`O=C(N1CCN(c2ncc(F)cn2)CC1)N1N=CCC1c1cc(F)cc(F)c1` (stereo not shown) [Compound 101, (5-(3,5-difluorophenyl)-4,5-dihydro-1H-pyrazol-1-yl)(4-(5-fluoropyrimidin-2-yl)piperazin-1-yl)methanone]: under setting [2], the EC50 was 1 to 1000 nM.
With `O=C(N1CC(Oc2ccc(Cl)cc2)C1)N1N=CCC1c1ccccc1` (stereo not shown) [Compound 65, (3-(4-chlorophenoxy)azetidin-1-yl)(5-phenyl-4,5-dihydro-1H-pyrazol-1-yl)methanone], the EC50 under setting [2] was 1 to 1000 nM.
Consider `O=C(N1CC(Nc2ccc(F)cc2F)C1)N1N=CCC1c1cc(F)cc(F)c1` (stereo not shown) [Compound 255, (5-(3,5-difluorophenyl)-4,5-dihydro-1H-pyrazol-1-yl)(3-((2,4-difluorophenyl)amino)azetidin-1-yl)methanone], for which the EC50 under setting [1] lay in the range of 1 to 1000 nM.
For the compound `C[C@H]1CN(c2ncc(C#N)cn2)CCN1C(=O)N1N=CCC1c1ccccc1` (stereo partly drawn) [Compound 116B, 2-((3S)-3-methyl-4-(5-phenyl-4,5-dihydro-1H-pyrazole-1-carbonyl)piperazin-1-yl)pyrimidine-5-carbonitrile], the EC50 under setting [2] is 1000 to 10000 nM.
In the case of `CN(C)CCC1Oc2cc(F)c(OC3CN(C(=O)N4N=CC[C@H]4c4cc(F)cc(F)c4)C3)cc2NC1=O` (stereo partly drawn) [Compound 249, 6-((1-((S)-5-(3,5-difluorophenyl)-4,5-dihydro-1H-pyrazole-1-carbonyl)azetidin-3-yl)oxy)-2-(2-(dimethylamino)ethyl)-7-fluoro-2H-benzo[b][1,4]oxazin-3(4H)-one], the half-maximal effective concentration (EC50) is 1 to 1000 nM.
For the compound `CC1Oc2cc(F)c(OC3CN(C(=O)N4N=CC[C@H]4c4cc(F)cc(C#N)c4)C3)cc2NC1=O` (stereo partly drawn) [Compound 351, 3-fluoro-5-((5S)-1(3-((7-fluoro-2-methyl-3-oxo-3,4-dihydro-2H-benzo[b][1,4]oxazin-6-yl)oxy)azetidine-1-carbonyl)-4,5-dihydro-1H-pyrazol-5. yl)benzonitrile], the EC50 under setting [1] is 1 to 1000 nM.
As for `Cn1c(OC2CN(C(=O)N3N=CCC3c3cc(F)cc(F)c3)C2)cccc1=O` (stereo not shown) [Compound 188], the EC50 under setting [2] was 1 to 1000 nM.
As for `N#Cc1cc(O[C@@H]2CCN(C(=O)N3N=CC[C@H]3c3cc(F)cc(F)c3)C2)ccc1F` [Compound 342, 5-(((R)-1-((S)-5-(3,5-difluorophenyl)-4,5-dihydro-1H-pyrazole-1-carbonyl)pyrrolidin-3-yl)oxy)-2-fluorobenzonitrile], the EC50 under setting [1] was in the range of 1 to 1000 nM.
Regarding `O=C(N1CC(=Cc2ccc(Cl)cc2F)C1)N1N=CCC1c1cc(F)cc(F)c1` (stereo not shown) [Compound 138], under setting [2], the EC50 was 1 to 1000 nM.
Consider `NC(=O)c1ccc(C=C2CN(C(=O)N3N=CC[C@H]3c3cc(F)cc(F)c3)C2)cn1` [Compound 295, (S)-5-((1-(5-(3,5-difluorophenyl)-4,5-dihydro-1H-pyrazole-1-carbonyl)azetidin-3-ylidene)methyl)picolinamide], for which, under setting [1], the EC50 was 1 to 1000 nM.
Turning to `N#Cc1ccc(C=C2CN(C(=O)N3N=CC[C@H]3c3cc(F)cc(F)c3)C2)c(F)n1` [Compound 323, (S)-5-((1-(5-(3,5-difluorophenyl)-4,5-dihydro-1H-pyrazole-1-carbonyl)azetidin-3-ylidene)methyl)-6-fluoropicolinonitrile], under setting [1], the EC50 is 1 to 1000 nM.
`NC(=O)c1ccc(OC2CN(C(=O)N3N=CCC3c3cc(F)cc(F)c3)C2)cc1` (stereo not shown) [Compound 130, 4-((1-(5-(3,5-difluorophenyl)-4,5-dihydro-1H-pyrazole-1-carbonyl)azetidin-3-yl)oxy)benzamide]: the EC50 under setting [2] was 1 to 1000 nM.
Still for that read-out and setting: then `NC(=O)c1c(F)cc(OC2CN(C(=O)N3N=CCC3c3cc(F)cc(F)c3)C2)cc1F` (stereo not shown) [Compound 156], with 1 to 1000 nM.
As for `O=C(N1CC(Oc2nc(Cl)ncc2F)C1)N1N=CC[C@H]1c1cc(F)cc(F)c1` [Compound 267], the EC50 under setting [1] fell in the range of 1 to 1000 nM.
As for `O=C(N1CC(=Cc2ccc3ccc(=O)[nH]c3c2)C1)N1N=CCC1c1cc(F)cc(F)c1` (stereo not shown) [Compound 190], the EC50 under setting [2] is 1 to 1000 nM.
Still for that read-out and setting: then `O=C(N1CCC(Cc2ccccc2)CC1)N1N=CCC1c1ccccc1` (stereo not shown) [Compound 18, (4-benzylpiperidin-1-yl)(5-phenyl-4,5-dihydro-1H-pyrazol-1-yl)methanone], with 1 to 1000 nM.
With `CC1Oc2ccc(OC3CN(C(=O)N4N=CC[C@H]4c4cc(F)cc(C#N)c4)C3)cc2NC1=O` (stereo partly drawn) [Compound 354, 3-fluoro-5-((5S)-1-(3-((2-methyl-3-oxo-3,4-dihydro-2H-benzo[b][1,4]oxazin-6-yl)oxy)azetidine-1-carbonyl)-4,5-dihydro-1H-pyrazol-5-yl)benzonitrile], the EC50 under setting [1] was 1 to 1000 nM.
Take `C[C@@H]1CN(c2ncc(F)cn2)CCN1C(=O)N1N=CCC1c1ccccc1` (stereo partly drawn) [Compound 114A, ((R)-4-(5-fluoropyrimidin-2-yl)-2-methylpiperazin-1-yl)(5-phenyl-4,5-dihydro-1H-pyrazol-1-yl)methanone]: the EC50 under setting [2] was 1 to 1000 nM.
For `O=C(N1CC(CN2Cc3cn[nH]c3C2)C1)N1N=CC[C@H]1c1cc(F)cc(F)c1` [Compound 375, (S)-(5-(3,5-difluorophenyl)-4,5-dihydro-1H-pyrazol-1-yl)(3-((4,6-dihydropyrrolo[3,4-c]pyrazol-5(1H)-yl)methyl)azetidin-1-yl)methanone], the EC50 under setting [1] is 1 to 1000 nM.
Turning to `O=C(N1CCN(c2ncccn2)CC1)N1N=CCC1c1ccccc1` (stereo not shown) [Compound 84, (5-phenyl-4,5-dihydro-1H-pyrazol-1-yl)(4-(pyrimidin-2-yl)piperazin-1-yl)methanone], the EC50 under setting [2] was 1 to 1000 nM.
